Laboratory results reported in US8106050B2, “Derivatives of pyrrolo-pyrazines having a kinase inhibitory activity and their biological applications” (Centre National de la Recherche Scientifique (C.N.R.S.), priority 2002, dated 2012).
pIC50: −log10 of the molar value. Counter-ions that a name gives are not always drawn. Like-named read-outs stand apart in the source and are kept apart here.

Columns and labels:
GSK-3α/β = assay: GSK-3 kinase assay (GS-1 peptide, 15 μM ATP); format: biochemical, porcine; conditions: read-out: IC50 GSK-3
Method: (§1) Blank values were subtracted and activities calculated as pmoles of phosphate incorporated for a 10 min. incubation. […] Controls were performed with appropriate dilutions of dimethylsulfoxide. In a few cases phosphorylation of the substrate was assessed by autoradiography after SDS-PAGE.
GSK-3α/β was either purified from porcine brain or expressed in and purified from insect Sf9 cells. […] ATP (3,000 Ci/mmol; 1 mCi/ml) in a final volume of 30 μl. After 30 min. incubation at 30° C., 25 μl aliquots of supernatant were spotted onto 2.5×3 cm pieces of Whatman P81 phosphocellulose paper, and, 20 sec. later, the filters were washed five times (for at least 5 min. each time) in a solution of 10 ml phosphoric acid/liter of water. The wet filters were counted in the presence of 1 ml ACS (Amersham) scintillation fluid.
(§2) Kinases were assayed as above described in the presence of increasing concentrations of aloisines.

CDK5/p25 = CDK5/p25 (Homo sapiens, UniProt Q00535); assay: CDK5/p25 kinase assay (histone H1, 15 μM ATP); format: biochemical, mammalian; conditions: Table 1
Method: as §1
CDK5/p25 was reconstituted by mixing equal amounts of recombinant mammalian CDK5 and p25 expressed in E. coli as GST (Glutathione-S-transferase) fusion proteins and purified by affinity chromatography on glutathione-agarose (p25 is a truncated version of p35, the 35 kDa CDK5 activator). Its activity was assayed in buffer C as described for CDK1/cyclin B.
as §2

CDK1/cyclin B = CDK1/cyclin B kinase assay (histone H1, 15 μM ATP); format: biochemical, starfish (Marthasterias glacialis); conditions: 15 μM ATP, Table 1
Method: as §1
CDK1/cyclin B was extracted in homogenisation buffer from M phase starfish (Marthasterias glacialis) oocytes and purified by affinity chromatography on p9^CKShs1-sepharose beads, from which it was eluted by free p9^CKShs1. […] ATP (3,000 Ci/mmol; 1 mCi/ml) in a final volume of 30 μl. After 10 min. incubation at 30° C., 25 μl aliquots of supernatant were spotted onto P81 phosphocellulose papers and treated as described above.
as §2

Chain of CDK5/p25 (Q00535 whole entry, species assumed): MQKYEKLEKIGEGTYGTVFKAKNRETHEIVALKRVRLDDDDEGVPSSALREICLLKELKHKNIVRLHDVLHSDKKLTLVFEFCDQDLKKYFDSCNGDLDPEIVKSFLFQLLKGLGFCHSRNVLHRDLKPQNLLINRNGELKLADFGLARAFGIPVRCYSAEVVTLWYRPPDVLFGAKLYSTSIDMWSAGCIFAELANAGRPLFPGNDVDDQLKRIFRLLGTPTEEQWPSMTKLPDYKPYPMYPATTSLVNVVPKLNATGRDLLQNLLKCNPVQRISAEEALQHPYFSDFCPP
Chain of CDK5/p25 (Q15078 99-307 partner limits assumed, species assumed): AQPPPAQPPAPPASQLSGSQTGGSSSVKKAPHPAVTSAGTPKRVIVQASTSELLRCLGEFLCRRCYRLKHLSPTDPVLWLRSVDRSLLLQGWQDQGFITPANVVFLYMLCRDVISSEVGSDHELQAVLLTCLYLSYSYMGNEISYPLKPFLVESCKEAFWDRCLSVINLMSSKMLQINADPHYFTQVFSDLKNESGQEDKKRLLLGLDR

Structure (SMILES)	melting point	pIC50 (GSK-3α/β; 15 μM ATP, Table 1)	pIC50 (CDK5/p25)	pIC50 (GSK-3α/β)	pIC50 (CDK1/cyclin B)
COc1ccc(-c2[nH]c3nccnc3c2C(C)C)cc1 [36 (RP102), 7-Isopropyl-6-(4-methoxyphenyl)[5H]pyrrolo[2,3-b]pyrazine]	204.8 °C	6.30			
Br.Oc1ccc(-c2cc3nccnc3[nH]2)cc1 [15 (RP26), 6-(4-Hydroxyphenyl) [5H]pyrrolo[2,3-b]pyrazine hydrobromide]	255 °C (dec.)			5.92	5.92
Clc1ccc(-c2cc3nccnc3[nH]2)cc1 [19 (RP14), 6-(4-Chlorophenyl)[5H]pyrrolo[2,3-b]pyrazine]	250 °C (dec.)				5.74
Cc1cnc2cc(-c3ccccc3)[nH]c2n1 [8 (RP18), 3-Methyl-6-phenyl[5H]pyrrolo[2,3-b]pyrazine]	261.8 °C	< 4.00			4.16
Cc1c(C2(c3ccc(Cl)cc3)CC2)[nH]c2nccnc12 [49 (RP130)]		4.74			
COc1cccc(-c2cc3nccnc3[nH]2)c1 [12 (RP10), 6-(3-Methoxyphenyl)[5H]pyrrolo[2,3-b]pyrazine]	195.7 °C	5.49			4.89
COc1cc(-c2cc3nccnc3[nH]2)cc(OC)c1OC [17 (RP16), 6-(3,4,5-Trimethoxyphenyl)[5H]pyrrolo[2,3-b]pyrazine]	231.7 °C	4.07	< 4.00		
Cc1c(-c2ccc(Cl)cc2)[nH]c2nccnc12 [30 (RP80), 6-(4-Chlorophenyl)-7-methyl[5H]pyrrolo[2,3-b]pyrazine]	260 °C (dec.)	5.77			
COc1ccc(-c2[nH]c3nccnc3c2CCCCl)cc1 [35 (RP126), 7-(3-Chloropropyl)-6-(4-methoxyphenyl)[5H]pyrrolo[2,3-b]pyrazine]	178 °C (dec.)	5.60			
Brc1ccc(-c2cc3nccnc3[nH]2)cc1 [21 (RP77), 6-(4-Bromophenyl) [5H]pyrrolo[2,3-b]pyrazine]	256 °C (dec.)	5.22	< 4.00		
Oc1ccc(-c2[nH]c3nccnc3c2CC2CC2)cc1 [43 (RP112), 6-(4-Hydroxyphenyl)-7-methylcyclopropyl[5H]pyrrolo[2,3-b]pyrazine hydrobromide]		5.52	< 4.00		4.30
Clc1ccc(C2(c3cc4nccnc4[nH]3)CC2)cc1 [9 (RP124), 6-[1-(4-Chlorophenyl)-1-cyclopropyl][5H]pyrrolo[2,3-b]pyrazine]	189.7 °C	6.00			4.52
CC(C)c1c(-c2ccc(Cl)cc2)[nH]c2nccnc12 [37 (RP90), 6-(4-Chlorophenyl)-7-isopropyl[5H]pyrrolo[2,3-b]pyrazine]	208.6 °C	6.12			6.07
Br.CCCc1c(-c2ccc(O)cc2)[nH]c2nccnc12 [33 (RP132), 6-(4-Hydroxyphenyl)-7-propyl[5H]pyrrolo[2,3-b]pyrazine hydrobromide]	244 °C (dec.)	5.74			4.60
COc1cc(OC)cc(-c2cc3nccnc3[nH]2)c1 [16 (RP21), 6-(3,5-Dimethoxyphenyl)[5H]pyrrolo[2,3-b]pyrazine]	216.7 °C	4.22	< 4.00		
Cc1ccc(-c2cc3nccnc3[nH]2)cc1 [24 (RP78), 6-(4-Methylphenyl)[5H]pyrrolo[2,3-b]pyrazine]	265.4 °C	5.59			5.52

Now from value to compound:

melting point	pIC50 (GSK-3α/β; 15 μM ATP, Table 1)	pIC50 (CDK5/p25)	pIC50 (GSK-3α/β)	pIC50 (CDK1/cyclin B)	Structure (SMILES)
266.3 °C	5.17	< 4.00			Clc1ccc(-c2[nH]c3nccnc3c2Cc2ccccc2)cc1 [45 (RP91), 7-Benzyl-6-(4-chlorophenyl)[5H]pyrrolo[2,3-b]pyrazine]
156.9 °C	5.48			4.70	COc1ccccc1-c1cc2nccnc2[nH]1 [10 (RP9), 6-(2-Methoxyphenyl)[5H]pyrrolo[2,3-b]pyrazine]
	5.17	< 4.00		5.30	COc1ccc(-c2c(C)c3nccnc3n2C2CCCCC2)cc1 [46 (RP98), 6-(4-Methoxyphenyl)-7-methylcyclohexyl[5H]pyrrolo[2,3-b]pyrazine]
	5.96	< 4.00		6.00	COc1ccc(-c2c(C)c3nccnc3n2C2CC2)cc1 [42 (RP104), 6-(4-Methoxyphenyl)-7-methylcyclopropyl[5H]pyrrolo[2,3-b]pyrazine]
	< 4.00	5.15			Cn1c(-c2ccccc2)cc2nccnc21 [48 (RP22)]
	5.10	< 4.00		5.00	Cc1c(-c2ccc(Cl)cc2)n(C2CCCCC2)c2nccnc12 [47 (RP99), 6-(4-Chlorophenyl)-7-methylcyclohexyl[5H]pyrrolo[2,3-b]pyrazine]
193.8 °C	6.22			6.00	C=CCc1c(-c2ccc(OC)cc2)[nH]c2nccnc12 [34 (RP110), 7-Allyl-6-(4-methoxyphenyl)[5H]pyrrolo[2,3-b]pyrazine]
230.2 °C	5.70			5.96	COc1ccc(-c2[nH]c3nccnc3c2C)cc1OC [29 (RP123), 6-(3,4-Methoxyphenyl)-7-methyl[5H]pyrrolo[2,3-b]pyrazine]
340 °C (dec.)	5.32			5.52	N#Cc1ccc(-c2cc3nccnc3[nH]2)cc1 [23 (RP20), 6-(4-Cyanophenyl) [5H]pyrrolo[2,3-b]pyrazine]
221.6 °C	6.34			6.52	COc1ccc(-c2[nH]c3nccnc3c2C)cc1 [27 (RP95), 6-(4-Methoxyphenyl)-7-methyl[5H]pyrrolo[2,3-b]pyrazine]
216.4 °C	4.57			< 4.00	c1ccc2c(-c3cc4nccnc4[nH]3)cccc2c1 [6 (RP17), 6-(1-Naphtyl) [5H]pyrrolo[2,3-b]pyrazine]
	6.04				CCCCc1c(-c2ccc(OC)cc2)[nH]c2nccnc12 [38 (RP106), 7-n-Butyl-6-(4-methoxyphenyl)[5H]pyrrolo[2,3-b]pyrazine]
244 °C (dec.)	5.72			5.64	Fc1ccc(-c2cc3nccnc3[nH]2)cc1 [18 (RP76), 6-(4-Fluorophenyl)[5H]pyrrolo[2,3-b]pyrazine]
262 °C (dec.)	6.28			6.60	Br.Cc1c(-c2ccc(O)cc2)[nH]c2nccnc12 [28 (RP96), 6-(4-Hydroxyphenyl)-7-methyl[5H]pyrrolo[2,3-b]pyrazine hydrobromide]
258 °C (dec.)				5.60	Br.Oc1cccc(-c2cc3nccnc3[nH]2)c1 [13 (RP134), 6-(3-Hydroxyphenyl)[5H]pyrrolo[2,3-b]pyrazine hydrobromide]
	6.30	6.05		6.15	Cc1c(-c2ccc(OS(=O)(=O)N(C)C)cc2)[nH]c2nccnc12 [31 (RP125), 6-(4-Dimethylaminosulfamoyloxyphenyl)-7-methyl[5H]pyrrolo[2,3-b]pyrazine]
188.5 °C	6.40			6.40	CCCc1c(-c2ccc(OC)cc2)[nH]c2nccnc12 [32 (RP127)]
